Measurements as given in publication PMC7751407, “Novel oxindole/benzofuran hybrids as potential dual CDK2/GSK-3β inhibitors targeting breast cancer: design, synthesis, biological evaluation, and in silico studies” (Journal of Enzyme Inhibition and Medicinal Chemistry, 2020).

Tests used:
MCF-7 = assay: MTT anti-proliferative assay, MCF-7 breast cancer cells; format: cell-based; settings: Homo sapiens, MCF7, 48 h exposure, mean ± SD of three separate experiments
Procedure: (§1) 1. Anti-proliferative activity toward human breast cell lines
(§2) The two examined human breast cancer cell lines (T-47D and MCF-7) have been obtained from American Type Culture Collection (ATCC). Cells lines were maintained as monolayers in Dulbecco’s Modified Eagle’s Medium (DMEM) supplemented with 10% FBS, 2 mM L-glutamine, 100 U/ml penicillin and 100µg/ml streptomycin sulfate. Cells were sub-cultured with trypsine /EDTA solution, counted with haemocytometer and plated onto 96-well plates (5000 cells/well) and left overnight to form a semi-confluent monolayer. Cell monolayers were treated in quadrates with vehicle (DMSO, 0.1% v/v), test samples or Adriamycin as positive control for an exposure time of 48 h. At the end of exposure, MTT solution in PBS (5 mg/ml) was then added to all well including no cell blank and left to incubate for 90 min. The formation of formazan crystals were visually confirmed using phase contract microscopy. DMSO (100 µl/well) was added to dissolve the formazan crystals with shaking for 10 min after which the absorbance was read at 590 nm against no cell blanks on a FLuo Star Optima microplate reader (BMG technologies, Germany).
(§3) Cell proliferation was calculated comparing the OD values of the DMSO control wells and those of the samples represented as % proliferation to the control. Dose-response experiment was performed on samples producing > or =50% loss of cell proliferation using five serial 2-fold […]
(§4) IC50 values (concentration of sample causing 50% loss of cell proliferation of the vehicle control) were calculated using non-linear regression curve fitting of the dose response plots on GraphPad Prism V.6.0 software. […]

T-47D = assay: MTT anti-proliferative assay, T-47D breast cancer cells; format: cell-based; settings: Homo sapiens, T47D, 48 h exposure, mean ± SD of three separate experiments
Procedure: as §1, §2, §3, §4

MCF-10A = assay: MTT cytotoxicity towards non-tumorigenic breast cells MCF-10A; format: cell-based, human
Text: In order to investigate their selectivity on cancer cells, hybrids 5d, 5e and 5f, endowed with dual growth inhibitory action against MCF-7 and T-47D cells, were assesses for their cytotoxic action towards the non-tumorigenic breast cells (MCF-10A), via the MTT assay. The obtained IC50s and the calculated mean tumour selectivity index (S.I.); IC50 for MCF-10A/IC50 average for (MCF-7 and T-47D) have been presented in Table 5.
as §1, §2
Cell proliferation was calculated comparing the OD values of the DMSO control wells and those of the samples represented as % proliferation to the control. Dose-response experiment was performed on samples producing > or =50% loss of cell proliferation using five serial 2-fold dilutions (50, 25, 12.5, 6.25 and 3.125 µM) of the sample. IC50 values (concentration of sample causing 50% loss of cell proliferation of the vehicle control) were calculated using non-linear regression curve fitting of the dose response plots on GraphPad Prism V.6.0 software. […]

CDK2 = target: T1, CDK2 (Homo sapiens, UniProt P24941); assay: CDK2 kinase inhibition (CDK2 Kinase Enzyme System, Promega); format: biochemical; settings: mean ± SD of three separate experiments
T1 construct: purchased Promega, Milan, Italy V2971
Procedure: (§5) 2. CDK2/GSK-3β Kinase Inhibitory Activities
(§6) The CDK2 and GSK-3β inhibitory activities were determined for hybrids 5a-g using the CDK2
(§7) Kinase Enzyme System (catalog No. V2971) (Promega, Milan, Italy), and GSK3β Assay Kit

GSK-3β = target: T2, GSK-3β (Homo sapiens, UniProt P49841); assay: GSK-3β kinase inhibition (GSK3β Assay Kit, BPS Biosciences); format: biochemical; settings: mean ± SD of three separate experiments
T2 construct: purchased BPS Biosciences, San Diego, CA, USA 79700
T2 sequence (P49841 whole entry): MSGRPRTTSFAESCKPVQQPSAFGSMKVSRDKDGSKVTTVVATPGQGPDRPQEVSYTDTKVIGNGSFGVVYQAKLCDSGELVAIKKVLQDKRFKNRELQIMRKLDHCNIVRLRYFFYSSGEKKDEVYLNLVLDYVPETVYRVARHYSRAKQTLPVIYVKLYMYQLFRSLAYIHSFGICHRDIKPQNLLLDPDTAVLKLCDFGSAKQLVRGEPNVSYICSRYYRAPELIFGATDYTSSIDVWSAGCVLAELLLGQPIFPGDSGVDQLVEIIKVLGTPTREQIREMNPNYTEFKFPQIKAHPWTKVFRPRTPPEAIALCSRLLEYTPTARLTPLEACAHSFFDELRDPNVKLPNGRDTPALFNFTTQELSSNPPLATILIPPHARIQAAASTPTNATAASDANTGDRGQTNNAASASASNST
Procedure: as §5, §6, §7

MCF-7 cells [1] = assay: Cell cycle analysis by flow cytometry (PI stain) in MCF-7 cells; format: cell-based, human; settings: 24 h, at IC50 concentration
Procedure: Compounds showing promising antiproliferative as well as kinase inhibitory activity 5d, 5e and 5f were further investigated for their influence on the cell cycle progression by flow cytometry analysis using propidium iodide (PI) stain. Cell cycle parameters were compared for the breast cancer MCF-7 cells with DMSO as control and after treatment with the compounds of interest and incubation for 24 h, and the results were presented in Figure 5 and Table 3. […]
concentration), and then cells were washed twice with ice-cold phosphate buffered saline (PBS).
Subsequently, the treated cells were collected by centrifugation, fixed in ice-cold 70% (v/v) ethanol, washed with PBS, re-suspended with 100 μg/mL RNase, stained with 40 μg/mL PI, and analyzed by flow cytometry using FACS Calibur (Becton Dickinson, BD, Franklin Lakes, NJ,

MCF-7 cells [2] = assay: Annexin V-FITC/PI dual staining apoptosis assay in MCF-7 cells; format: cell-based, human; settings: at IC50 concentration
Procedure: To investigate further the effect of the promising compounds 5d, 5e, and 5f on cell apoptosis, Annexin V-FITC/propidium iodide dual staining assay was performed according to the reported method. The morphological markers of apoptosis in the breast cancer MCF-7 cell line were examined before and after treatment with the compounds of interest. Apoptosis assay depends on the translocation of the phosphatidylserine (PS) phospholipid to the cell surface in cells undergoing apoptosis which can be easily detected by staining with the fluorescent conjugate of annexin V followed by flow cytometry analysis. Simultaneously, MCF-7 cells were stained with propidium iodide (PI) which could enter cells with damaged plasma membranes only. This enables the discrimination between early apoptotic cells (positive for PS, but negative for PI) from late apoptotic and necrotic cells (positive for both PS and PI). […]
4. Annexin V-FITC Apoptosis Assay
Phosphatidylserine externalization was assayed using Annexin V-FITC/PI apoptosis detection kit (BD Biosciences, USA) according to the manufacturer’s instructions. Breast cancer MCF-7 cells were cultured to a monolayer then treated with hybrids (5d, 5e and 5f) at their IC50 concentration. Briefly, cells were then harvested via trypsinization, and rinsed twice in PBS followed by binding buffer. Moreover, cells were re-suspended in 100 μL of binding buffer with the addition of 1 μL of FITC-Annexin V followed by an incubation period of 30 min at 4 °C. Cells were then rinsed in binding buffer and resuspended in 150 μL of binding buffer with the addition of 1 μL of DAPI (1 μg/μL in PBS). Cells were then analyzed using the flow cytometer BD FACS Canto II and the results were interpreted with FlowJo7.6.4 software (Tree Star, Ashland, OR,

SMILES: COc1ccc2c(c1)C(=NNC(=O)c1cc3cc(Br)ccc3o1)C(=O)N2 [5f, 5-Bromo-N'-(5-methoxy-2-oxoindolin-3-ylidene)benzofuran-2-carbohydrazide]
- IC50 (MCF-7): 2.27 ± 0.06 µM
- IC50 (T-47D): 7.8 ± 0.25 µM
- IC50 (MCF-10A; Homo sapiens, MCF-10A, MTT assay, non-tumorigenic breast cell line): 40 ± 1.42 µM
- Mean tumour selectivity index (S.I.) (MCF-10A; IC50 for MCF-10A/IC50 average for (MCF-7 and T-47D)): 7.9
- IC50 (CDK2): 0.0528 ± 0.0029 µM
- IC50 (GSK-3β): 0.0401 ± 0.0022 µM
- %Sub-G1 (MCF-7 cells [1]; control 1.29): 22.02%
- %G2/M (MCF-7 cells [1]; control 11.3): 37.82%
- %S (MCF-7 cells [1]; control 33.82): 17.88%
- %G0-G1 (MCF-7 cells [1]; control 53.59): 22.28%
- Late Apoptosis (Upper Right %) (MCF-7 cells [2]; control 0.19): 22.16%
- Early Apoptosis (Lower Right %) (MCF-7 cells [2]; control 0.63): 3.94%
- Total apoptosis (L.R % + U.R %) (MCF-7 cells [2]; control 0.82): 26.10%
- Necrosis (MCF-7 cells [2]; upper left quadrant, control 0.49): 2.14%
- melting point: > 300 °C
